Reference: ChEMBL document CHEMBL5107990, “Discovery of 2-vinyl-10H-phenothiazine derivatives as a class of ferroptosis inhibitors with minimal human Ether-a-go-go related gene (hERG) activity for the treatment of DOX-induced cardiomyopathy” (Bioorg Med Chem Lett, 2022)
pEC50, pIC50: −log10 of the molar value. Activity calls are given as the source filed them. The rule behind the calls is not given here.

Key:
[1] = test system: HT-1080; test: Anti-ferroptotic activity against Erastin-induced ferroptosis in human HT-1080 cells; assay type: functional, cell-based
[2] = molecular target: Voltage-gated inwardly rectifying potassium channel KCNH2 (Homo sapiens, UniProt Q12809); test: Inhibition of hERG; assay type: toxicity
[3] = test system: Mus musculus; test: Protection against doxorubicin-induced cardiomyopathy model of mouse assessed as decrease in serum AST level at 10 to 30 mg/kg, ip administered 2 hrs prior to doxorubicin administration; assay type: functional, organism-based; conditions: dose 10-30 mg/kg
[4] = test system: HT-1080; test: Anti-ferroptotic activity against Erastin-induced ferroptosis in human HT-1080 cells assessed as decrease in MDA level at 0.01 to 1 uM; assay type: functional, cell-based; conditions: dose 0.01-1 µM
[5] = test system: ES-2; test: Anti-ferroptotic activity against Erastin-induced ferroptosis in human ES2 cells assessed as cell viability measured by MTT assay; assay type: functional, cell-based
[6] = test system: HT-1080; test: Antioxidant activity in human HT-1080 cells assessed as reduction in ROS production in cytoplasm at 0.01 to 1 uM measured by H2DCFDA staining method; assay type: functional, cell-based; conditions: dose 0.01-1 µM
[7] = test system: HT-1080; test: Anti-ferroptotic activity against Erastin-induced ferroptosis in human HT-1080 cells assessed as decrease in smaller and rounder cells measured by 7-AAD staining method; assay type: functional, cell-based
[8] = test system: Mus musculus; test: Protection against doxorubicin-induced cardiomyopathy model of mouse assessed as decrease in serum ALT level at 10 to 30 mg/kg, ip administered 2 hrs prior to doxorubicin administration; assay type: functional, organism-based; conditions: dose 10-30 mg/kg
[9] = test system: HT-1080; test: Anti-ferroptotic activity against Erastin-induced ferroptosis in human HT-1080 cells assessed as cell viability measured by MTT assay; assay type: functional, cell-based
[10] = test system: Calu-1; test: Anti-ferroptotic activity against Erastin-induced ferroptosis in human Calu-1 cells assessed as decrease in smaller and rounder cells measured by cytocalcein violet 450 staining method; assay type: functional, cell-based
[11] = test system: Mus musculus; test: Protection against doxorubicin-induced cardiomyopathy model of mouse assessed as decrease in serum CK-MB level at 10 to 30 mg/kg, ip administered 2 hrs prior to doxorubicin administration; assay type: functional, organism-based; conditions: dose 10-30 mg/kg
[12] = test system: MDA-MB-231; test: Anti-ferroptotic activity against Erastin-induced ferroptosis in human MDA-MB-231 cells assessed as cell viability measured by MTT assay; assay type: functional, cell-based
[13] = test system: Calu-1; test: Anti-ferroptotic activity against Erastin-induced ferroptosis in human Calu-1 cells assessed as cell viability measured by MTT assay; assay type: functional, cell-based
[14] = test system: Mus musculus; test: Protection against doxorubicin-induced cardiomyopathy model of mouse assessed as […] in collagen outflow at 10 to 30 mg/kg, ip administered 2 hrs prior to doxorubicin administration measured by Sirius red staining method; assay type: functional, organism-based; conditions: dose 10-30 mg/kg
[15] = test system: HT-1080; test: Antioxidant activity in human HT-1080 cells assessed as reduction in lipid ROS production at 0.01 to 1 uM measured by C11-BODIPY staining method; assay type: functional, cell-based; conditions: dose 0.01-1 µM
[16] = test system: Mus musculus; test: Protection against doxorubicin-induced cardiomyopathy model of mouse assessed as […] in collagen outflow at 10 to 30 mg/kg, ip administered 2 hrs prior to doxorubicin administration measured by H and E staining method; assay type: functional, organism-based; conditions: dose 10-30 mg/kg
[17] = test system: Mus musculus; test: Protection against doxorubicin-induced cardiomyopathy model of mouse assessed as decrease in serum LDH level at 10 to 30 mg/kg, ip administered 2 hrs prior to doxorubicin administration; assay type: functional, organism-based; conditions: dose 10-30 mg/kg
[18] = test system: Calu-1; test: Anti-ferroptotic activity against Erastin-induced ferroptosis in human Calu-1 cells assessed as decrease in smaller and rounder cells measured by 7-AAD staining method; assay type: functional, cell-based
[19] = test system: HT-1080; test: Anti-ferroptotic activity against Erastin-induced ferroptosis in human HT-1080 cells assessed as decrease in smaller and rounder cells measured by cytocalcein violet 450 staining method; assay type: functional, cell-based
[20] = Antioxidant activity assessed as DPPH radical scavenging activity at 10 to 50 uM; assay type: functional; conditions: dose 10-50 µM

Chain of Voltage-gated inwardly rectifying potassium channel KCNH2 (Q12809 whole entry): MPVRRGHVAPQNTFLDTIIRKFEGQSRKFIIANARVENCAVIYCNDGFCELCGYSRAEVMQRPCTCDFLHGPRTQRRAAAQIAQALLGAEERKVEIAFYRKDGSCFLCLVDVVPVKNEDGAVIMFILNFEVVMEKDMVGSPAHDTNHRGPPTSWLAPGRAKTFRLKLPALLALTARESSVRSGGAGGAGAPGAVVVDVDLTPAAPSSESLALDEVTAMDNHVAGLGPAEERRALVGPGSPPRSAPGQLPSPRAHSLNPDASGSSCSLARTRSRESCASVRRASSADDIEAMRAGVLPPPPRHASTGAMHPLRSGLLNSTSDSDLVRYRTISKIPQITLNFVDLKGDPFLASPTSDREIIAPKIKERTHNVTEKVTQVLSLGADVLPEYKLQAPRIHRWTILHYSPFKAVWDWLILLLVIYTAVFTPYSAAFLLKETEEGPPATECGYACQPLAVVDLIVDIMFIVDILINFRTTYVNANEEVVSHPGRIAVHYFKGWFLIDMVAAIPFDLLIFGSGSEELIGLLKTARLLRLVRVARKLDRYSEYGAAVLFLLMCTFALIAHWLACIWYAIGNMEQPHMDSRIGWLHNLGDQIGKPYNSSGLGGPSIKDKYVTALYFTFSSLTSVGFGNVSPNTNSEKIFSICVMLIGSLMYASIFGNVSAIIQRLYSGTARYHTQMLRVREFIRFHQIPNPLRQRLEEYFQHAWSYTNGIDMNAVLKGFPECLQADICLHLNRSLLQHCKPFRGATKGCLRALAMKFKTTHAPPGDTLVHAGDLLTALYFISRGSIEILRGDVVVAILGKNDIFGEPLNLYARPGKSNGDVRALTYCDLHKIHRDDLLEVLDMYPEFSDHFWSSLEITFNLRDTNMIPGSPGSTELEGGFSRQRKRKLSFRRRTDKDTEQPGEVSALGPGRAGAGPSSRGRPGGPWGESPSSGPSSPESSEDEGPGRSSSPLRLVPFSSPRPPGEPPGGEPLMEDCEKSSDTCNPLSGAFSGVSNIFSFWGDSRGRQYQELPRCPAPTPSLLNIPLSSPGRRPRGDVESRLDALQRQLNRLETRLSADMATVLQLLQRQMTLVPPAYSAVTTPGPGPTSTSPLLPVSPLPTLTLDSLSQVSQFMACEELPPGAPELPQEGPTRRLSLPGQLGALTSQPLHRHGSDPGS

pEC50 [1]	Compound	also measured
7.39	C=C(c1ccc(-c2ccccc2)cc1)c1ccc2c(c1)Nc1ccccc1S2	
8.52	CC(c1ccc(N2C[C@@H]3C[C@H]2CN3C)cc1)c1ccc2c(c1)Nc1ccccc1S2 (stereo partly drawn)	pIC50 [2]: 5.70
7.72	C=C(c1ccc2c(c1)Nc1ccccc1S2)c1cnc2ccccc2c1	
7.59	C=C(c1ccc2c(c1)Nc1ccccc1S2)c1cccc2cnccc12	
7.89	C=C(c1ccc(OC)cc1)c1ccc2c(c1)Nc1ccccc1S2	
7.77	C=C(c1cccc(N)c1)c1ccc2c(c1)Nc1ccccc1S2	
8.40	C=C(c1ccc(NC(C)=O)cc1)c1ccc2c(c1)Nc1ccccc1S2	pIC50 [2]: 4.66
9.00	C=C(c1ccc(NC(N)=O)cc1)c1ccc2c(c1)Nc1ccccc1S2	Activity [3]: Active; Activity [4]: Active; pEC50 [5]: 8.74; Activity [6]: Active; Activity [7]: Active; Activity [8]: Active; pEC50 [9]: 8.79; Activity [10]: Active; Activity [11]: Active; pEC50 [12]: 9.00; pEC50 [13]: 8.47; Activity [14]: Active; Activity [15]: Active; Activity [16]: Active; Activity [17]: Active; pIC50 [2]: < 4.52; Activity [18]: Active; Activity [19]: Active; Activity [20]: Active
7.41	C=C(c1ccc(N2CCOCC2)cc1)c1ccc2c(c1)Nc1ccccc1S2	
7.24	C=C(c1ccc2c(c1)Nc1ccccc1S2)c1cnc2c(cnn2C)c1	
7.60	C=C(c1ccc2c(c1)Nc1ccccc1S2)c1cncc2ccccc12	

The remaining lines, values behind:

Compound	pEC50 [1]	also measured
C=C(c1ccc(C(F)(F)F)cc1)c1ccc2c(c1)Nc1ccccc1S2	7.96	
C=C(c1ccc2c(c1)Nc1ccccc1S2)c1cccc2ccncc12	7.68	
C=C(c1ccc2c(c1)Nc1ccccc1S2)c1cnc2c(ccn2C)c1	7.38	
C=C(c1ccc2c(c1)Nc1ccccc1S2)c1ccc2c(c1)SCC(=O)N2	7.48	
C=C(c1ccc(N)cc1)c1ccc2c(c1)Nc1ccccc1S2	8.10	
C=C(c1ccc2c(c1)Nc1ccccc1S2)c1ccccc1N	7.54	
C=C(c1ccc(C2CCCCC2)cc1)c1ccc2c(c1)Nc1ccccc1S2	7.41	
C=C(c1ccccc1)c1ccc2c(c1)Nc1ccccc1S2	8.00	
C=C(c1ccc(N2C[C@@H]3C[C@H]2CN3C)cc1)c1ccc2c(c1)Nc1ccccc1S2	8.52	pIC50 [2]: 4.92
C=C(c1cnc2c(c1)CCN2)c1ccc2c(c1)Nc1ccccc1S2	7.05	
C=C(c1ccc(NC(=O)N(C)C)cc1)c1ccc2c(c1)Nc1ccccc1S2	7.70	
C=C(c1ccc(N2CC[C@H](N(C)C)C2)cc1)c1ccc2c(c1)Nc1ccccc1S2	9.00	pIC50 [2]: 5.30
C=C(c1ccc2c(c1)Nc1ccccc1S2)c1ccc2c(c1)OCCO2	7.43	
C=C(c1ccc(C(C)C)cc1)c1ccc2c(c1)Nc1ccccc1S2	7.40	
